Patent US20120269802A1, “Treatment And Prognosis With Thalidomide In Multiple Myeloma Based on Karyotyping And Gene Expression Profiling” (Board Of Trustees Of The University Of Arkansas, priority 2009, published 2012)

System: multiple myeloma
Experiment: Total Therapy 2 (TT2) randomized trial, control arm vs thalidomide arm: survival (Kaplan-Meier, Cox regression)
Format: in vivo, patients
Conditions: for Overall Survival HR (95% CI), randomization to thalidomide: all patients with GEP data
Source text: To clarify the underlying mechanism, survival was examined in the 351 patients for whom gene expression profiling and cytogenetic data were available. […] Survival in the context of cytogenetic abnormalities involving chromosomal loci (CA1, CA13) was also examined. Statistical methods including Cox regression modeling were employed to define variables independently impacting outcomes.
Of all 668 patients accrued to TT2, the 351 with gene expression profiling data available on CD138-purified plasma cells prior to initiation of therapy are the subjects of this report. […] The sole clinical outcome focus in this example is the overall survival measured from initiation of therapy.
Kaplan-Meier methods were used to generate survival distribution graphs and comparisons were made using the log-rank test. Categorical comparisons were made using the chi-squared test. Running log-rank tests were used to determine optimal cut points for IL6R expression levels. Multivariate analyses applied stepwise selection and Cox proportional hazard regression modeling.
In each of Tables 2-3: HR—Hazard Ratio, 95% Cl-95% Confidence Interval, P-value from Wald Chi-Square Test in Cox Regression NS2-Multivariate results not statistically significant at 0.05 level. All univariate p-values reported regardless of significance. Multivariate model uses stepwise selection with entry level 0.1 and variable remains if meets the 0.05 level. A multivariate p-value greater than 0.05 indicates variable forced into model with significant variables chosen using stepwise selection. Variables considered for the multivariate model were: Cytogenetic abnormalities, CA1, CA13, CA 1+13, Albumin <3.5 g/dL, B2M >5.5 mg/L, Creatinine ≧2 mg/dL, Hb <10 g/dL, LDH ≧190 U/L, GEP high-risk, GEP TP53 deletion, GEP IL6R expression ≧2900, GEP CKS1B Q4, Randomization to thalidomide, IL6R and CA 1+13 (interaction term).

O=C1CCC(N2C(=O)c3ccccc3C2=O)C(=O)N1 (stereo not shown) [thalidomide]
7-year survival estimate (GEP-defined low-risk myeloma, subset displaying cytogenetic abnormalities, thalidomide arm vs 30% on control arm, p=0.004 (FIG. 1B)): 67% | outcome vs control arm (all patients with GEP-defined low-risk myeloma, p=0.13): only trending toward better outcomes | 5-year survival estimate (low-risk patients, CA1/13 subgroup (CA without both CA1 and CA13), addition of thalidomide vs 59% control, p<0.001 (FIG. 1C)): 95% | survival outcomes on both treatment arms (low-risk patients, subgroups with no cytogenetic abnormalities and with CA1+13 (FIG. 1C)): similar | Overall Survival HR (95% CI), randomization to thalidomide (multivariate analysis, n/N 168/337, P 0.037): 0.69 (0.49, 0.98) | OS from Enrollment HR (95% CI), CA with thalidomide randomization (interaction term) (multivariate analysis, patients with GEP-defined low-risk, n/N 33/304, P 0.003): 0.27 (0.11, 0.64) | OS from Enrollment HR (95% CI), randomization to thalidomide (multivariate analysis, patients with GEP-defined low-risk, n/N 149/304, P 0.766): 1.08 (0.65, 1.79) | 7-year survival (patients exhibiting cytogenetic abnormalities (CA), randomized to thalidomide in TT2, vs 25% on control arm, p=0.015 (FIG. 1A)): 54% | Overall Survival HR (95% CI), randomization to thalidomide (univariate analysis, n/N 175/351, P 0.158): 0.78 (0.56, 1.10) | OS from Enrollment HR (95% CI), randomization to thalidomide (univariate analysis, patients with GEP-defined low-risk, n/N 149/305, P 0.140): 0.74 (0.50, 1.10)
